Measured values taken from the supplement of paper PMC10307832.

Legend:
Assay in all cases: relative viability (nuclei count vs DMSO), 5 days (fraction); higher = more cells survive
AZD8055 + Pictilisib = compound: COc1ccc(-c2ccc3c(N4CCOC[C@@H]4C)nc(N4CCOC[C@@H]4C)nc3n2)cc1CO [AZD8055] + CS(=O)(=O)N1CCN(Cc2cc3nc(-c4cccc5[nH]ncc45)nc(N4CCOCC4)c3s2)CC1 [Pictilisib] (partner 1 µM)
In short: (§1)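 Medians of duplicate plates are given as relative viability. That measure is the nuclei count in treated wells divided by the count in vehicle wells. Counts were taken on 4× images of lung cancer cell lines in 1536-well plates, 5 days after pin-tool dosing the day after seeding with one drug alone or a fixed anchor-drug dose plus five library-drug doses (not always all listed) in √10 steps.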

AZD8055 + Phenformin = compound: COc1ccc(-c2ccc3c(N4CCOC[C@@H]4C)nc(N4CCOC[C@@H]4C)nc3n2)cc1CO [AZD8055] + N=C(N)NC(=N)NCCc1ccccc1 [Phenformin] (partner 250 µM)
In short: as §1

AZD8055 + Palbociclib = compound: COc1ccc(-c2ccc3c(N4CCOC[C@@H]4C)nc(N4CCOC[C@@H]4C)nc3n2)cc1CO [AZD8055] + CC(=O)c1c(C)c2cnc(Nc3ccc(N4CCNCC4)cn3)nc2n(C2CCCC2)c1=O [Palbociclib] (partner 0.5 µM)
In short: as §1

AZD8055 + Decitabine = compound: COc1ccc(-c2ccc3c(N4CCOC[C@@H]4C)nc(N4CCOC[C@@H]4C)nc3n2)cc1CO [AZD8055] + Nc1ncn([C@H]2C[C@H](O)[C@@H](CO)O2)c(=O)n1 [Decitabine] (partner 2 µM)
In short: as §1

Row | Cell Line | relative viability (AZD8055 + Pictilisib; first compound 0.01 µM) | relative viability (AZD8055 + Pictilisib; first compound 0.03162 µM) | relative viability (AZD8055 + Pictilisib; first compound 0.1 µM) | relative viability (AZD8055 + Pictilisib; first compound 0.3162 µM) | relative viability (AZD8055 + Pictilisib; first compound 1 µM) | relative viability (AZD8055 + Phenformin; first compound 0.01 µM) | relative viability (AZD8055 + Phenformin; first compound 0.03162 µM) | relative viability (AZD8055 + Phenformin; first compound 0.1 µM) | relative viability (AZD8055 + Phenformin; first compound 0.3162 µM) | relative viability (AZD8055 + Phenformin; first compound 1 µM) | relative viability (AZD8055 + Palbociclib; first compound 0.01 µM) | relative viability (AZD8055 + Palbociclib; first compound 0.03162 µM) | relative viability (AZD8055 + Palbociclib; first compound 0.1 µM) | relative viability (AZD8055 + Palbociclib; first compound 0.3162 µM) | relative viability (AZD8055 + Palbociclib; first compound 1 µM) | relative viability (AZD8055 + Decitabine; first compound 0.01 µM) | relative viability (AZD8055 + Decitabine; first compound 0.03162 µM) | relative viability (AZD8055 + Decitabine; first compound 0.1 µM) | relative viability (AZD8055 + Decitabine; first compound 0.3162 µM) | relative viability (AZD8055 + Decitabine; first compound 1 µM)
1 | LOU-NH91 | 0.546 | 0.542 | 0.512 | 0.478 | 0.491 | 0.678 | 0.711 | 0.532 | 0.49 | 0.455 | 0.531 | 0.536 | 0.589 | 0.552 | 0.497 | 0.85 | 0.809 | 0.72 | 0.577 | 0.615
2 | LU99A | 0.281 | 0.18 | 0.168 | 0.195 | 0.22 | 0.802 | 0.626 | 0.492 | 0.276 | 0.28 | 0.312 | 0.285 | 0.167 | 0.198 | 0.2 | 1 | 0.666 | 0.417 | 0.222 | 0.188
3 | NCI-H1395 | 0.587 | 0.535 | 0.636 | 0.478 | 0.425 | 0.447 | 0.396 | 0.333 | 0.394 | 0.374 | 0.604 | 0.526 | 0.547 | 0.44 | 0.45 | 0.767 | 0.585 | 0.615 | 0.419 | 0.506
4 | NCI-H460 | 0.338 | 0.295 | 0.262 | 0.226 | 0.264 | 0.609 | 0.474 | 0.124 | 0.049 | 0.034 | 0.154 | 0.108 | 0.0839 | 0.0295 | 0.0277 | 0.573 | 0.352 | 0.353 | 0.246 | 0.13
5 | 201T | 0.623 | 0.606 | 0.521 | 0.495 | 0.472 | 0.473 | 0.438 | 0.422 | 0.318 | 0.314 | 0.354 | 0.314 | 0.278 | 0.251 | 0.303 | 0.863 | 0.711 | 0.692 | 0.579 | 0.527
6 | NCI-H1944 | 0.323 | 0.302 | 0.278 | 0.275 | 0.287 | 0.193 | 0.2 | 0.187 | 0.148 | 0.129 | 0.291 | 0.264 | 0.22 | 0.174 | 0.152 | 0.429 | 0.349 | 0.402 | 0.319 | 0.226
7 | NCI-H2405 | 0.503 | 0.398 | 0.316 | 0.182 | 0.223 | 0.399 | 0.368 | 0.341 | 0.302 | 0.275 | 0.51 | 0.47 | 0.384 | 0.336 | 0.295 | 0.79 | 0.715 | 0.593 | 0.363 | 0.339
8 | NCI-H1703 | 0.24 | 0.263 | 0.257 | 0.232 | 0.255 |  |  |  |  |  |  |  |  |  |  |  |  |  |  | 
9 | NCI-H1755 | 0.39 | 0.312 | 0.274 | 0.253 | 0.271 | 0.609 | 0.594 | 0.541 | 0.463 | 0.474 | 0.42 | 0.44 | 0.388 | 0.368 | 0.359 | 0.714 | 0.636 | 0.691 | 0.506 | 0.461
